In US4020164A, “Benzomorphan derivatives” (priority 1972, dated 1977):
Entries after “also recorded” stand apart in the source; their conditions may differ. Structures can show the parent of a compound that is named as a salt. Where two headings read alike, the source gives them in different places.

Tests used:
phenylquinone [1] = assay: Writhing test, acute (phenylquinone writhing, analgesic activity); format: in vivo; conditions: mice; for ED50, writhing test, acute p.o., 10 min. p.i. / ED50, writhing test, acute p.o., 30 min. p.i. / ED50, writhing test, acute s.c., 30 min. p.i. / ED50, writhing test, acute s.c., 10 min. p.i. / ED50: phenylquinone 2 mg/kg i.p., hydrochloride, acute; for potency in writhing test compared with cyclazocine: vs. cyclazocine; for potency in writhing test compared with morphine: vs. morphine; for potency in writhing test compared with pentazocine: vs. pentazocine
Experimental: (§1) The pharmacological investigations were conducted on mice weighing 20-22 g. or on rats weighing 80-110 g. Unless indicated otherwise, the test substances were administered in the form of the hydrochloride acid addition salt thereof in an isotonic NaCl solution, and the animals were examined 30 minutes after subcutaneous (sc) application. The injection volume was respectively 5 ml./kg. of body weight. 10-40 controls animals were used in each experiment. The test and control solutions were administered in accordance with a randomized injection schedule. Seven logarithmically spaced dosages were employed of each test substance. The effective dose (ED) was calculated by probit analysis (Finney, D. J., "Probit Analysis," Cambridge University Press, 2nd Edition, Cambridge 1957). ED50 figures were rounded.
(§2) In the acute test, the test compounds were administered perorally (p.o.) or subcutaneously (s.c.) to mice. Eight mice were used per dose. Seven minutes prior to the testing, the animals received 2 mg./kg. of phenylquinone intraperitoneally. […] The criterion for protective effect was absence of writhes during the eighth minute after phenylquinone administration.

apomorphine = assay: Apomorphine antagonism test; format: in vivo, mice; conditions: for apomorphine-antagonistic activity compared with cyclazocine and pentazocine: vs. cyclazocine and pentazocine; for apomorphine-antagonistic activity compared with haloperidol: vs. haloperidol; for ED50, Apomorphine Antagonism: mouse, in vivo, 1.56 mg/kg; for ED50: read-out: ED50, Apomorphine Antagonism
Experimental: as §1
The criterion for antagonistic effect was the absence of stereotyped movements within an observation period of one minute.

electroshock = assay: Maximal electroshock test; format: in vivo; conditions: mice; for ED50, Maximal Electroshock Test / ED50: 16 mA/50 c.p.s., 0.2 second, transcorneal, absence of tonic extensor cramp of hind limbs, 30 min; for ED50, Maximal Electroshock Test: s.c.; for ED50: Mus musculus, sc, 0.5 h
Experimental: 10-40 controls animals were used in each experiment. […] ED50 figures were rounded.
In the maximum electroshock test, the test substances were administered to dose groups of 6 mice. Sinusoidal pulses of 16 milliamperes/50 c.p.s. [Hertz] and 0.2 second duration were delivered transcorneally via silver electrodes. The shock intensity used elicits nonlethal tonic-clonic convulsions in control animals (p <0.01, N = 192). The criterion for protective effect was the absence of the tonic extensor cramp of the hind limbs after shock application (modified test according to Swinyard et al., J. Pharmacol. Exp. Ther. 106, 319, 1952).

morphine [2] = assay: Precipitated Withdrawal Jumping Test (morphine antagonism in morphine-dependent mice); format: in vivo
Experimental: as §1
The test compound was given to dose groups of 8 animals. The antagonist-precipitated withdrawal jumping frequencies were recorded during three 5-minute observation intervals uniformly distributed over 30 minutes after administration of the test compound. […] The criterion for a precipitating effect is a mean jumping frequency of >1/minute.

morphine [3] = assay: animal or person; format: in vivo, rats; conditions: for ED50, Morphine Antagonism-Tail-Flick Test, Rats: 6.25 mg/kg
morphine [4] = tested on: morphine; set-up: species or system mice; conditions: mouse, in vivo; for ED50, Morphine Antagonism-Tail-Flick Test, Mice: 12.5 mg/kg
phenylquinone [5] = conditions: mice; s.c.; 30 min p.i.; 25 hours after last injection of 64-hour pretreatment, total 550 mg/kg
Experimental: as §1, §2
In the subchronic test, the same test was performed 25 hours after the last injection of a 64-hour pretreatment period, with the test compound being administered subcutaneously. During the pretreatment period, the subjects received a total of 550 mg/kg. of the test compound, with the test compound being injected over a period of 22 hours in 4 increasing dosages in salt form, and over an additional 42 hours in 2 identical dosages in free base form in sesame oil.

[6] = J. Pharmacol. Exp. Ther. 144, 12, 1964; Clin. Pharmacol. Ther. 11:1, 41, 1970; cited from earlier work
[7] = p.o., 10 min p.i., ED50 rounded
[8] = p.o., 30 min p.i., ED50 rounded
[9] = s.c., 30 min p.i., * = significant difference between acute and subchronic ED50 (p < 0.001)
[10] = s.c., 10 min p.i., ED50 rounded
[11] = morphine-dependent mice, criterion mean jumping frequency >1/minute

Compound: CCC12CCN(CC(C)(C)O)C(Cc3ccc(O)cc31)C2C (single isomer, unassigned; (-)) [Compound A, (-)-5-ethyl-2'-hydroxy-2-(2-hydroxy-2-methylpropyl)-9-methyl-6,7-benzomorphan]
- ED50, writhing test, acute p.o., 10 min. p.i. (phenylquinone [1]; [7]): 3 mg/kg
- ED50, writhing test, acute p.o., 30 min. p.i. (phenylquinone [1]; [8]): 7 mg/kg
- ED50, writhing test, acute s.c., 30 min. p.i. (phenylquinone [1]; [9]): 0.2 mg/kg
- potency in writhing test compared with cyclazocine (phenylquinone [1]): at least equipotent with cyclazocine
- potency in writhing test compared with morphine (phenylquinone [1]): more potent than morphine
- potency in writhing test compared with pentazocine (phenylquinone [1]): appreciably more potent than pentazocine
- apomorphine-antagonistic activity compared with cyclazocine and pentazocine (apomorphine; mice): markedly stronger activity than cyclazocine and pentazocine
- apomorphine-antagonistic activity compared with haloperidol (apomorphine; mice): only slightly weaker effectiveness than haloperidol
- ED50, Apomorphine Antagonism (apomorphine; sc): 0.3 mg/kg
- muscle-relaxant and anti-convulsant effect in maximum electroshock test (in words) (electroshock): strong muscle-relaxant and anti-convulsant effect
- ED50, Maximal Electroshock Test (electroshock): 8 mg/kg

Compound: CC1C2Cc3ccc(O)cc3C1(C)CCN2CC(C)(C)O (single isomer, unassigned; (-)) [Compound B, (-)-2'-hydroxy-2-(2-hydroxy-2-methylpropyl)-5,9-dimethyl-6,7-benzomorphan]
- precipitated withdrawal effect (in words) (morphine [2]; morphine-dependent mice): inactivity
- sedative and muscle-relaxant effect (explaining inactivity in jumping test) (morphine [2]; morphine-dependent mice): simultaneous sedative and muscle-relaxant effect
- ED50, Precipitated Withdrawal Jumping Test (inactive, footnote 1) (morphine [2]; morphine-dependent mice, tested at 0.1 - 3.13 mg/kg): Inactive
- morphine-antagonistic activity, tail-flick test (in words), rats (morphine [3]; rat, in vivo): marked activity
- ED50, Morphine Antagonism-Tail-Flick Test, Rats (morphine [3]; rat, in vivo, sc): 3 mg/kg
- ED50, writhing test, acute p.o., 10 min. p.i. (phenylquinone [1]; [7]): 5 mg/kg
- ED50, writhing test, acute p.o., 30 min. p.i. (phenylquinone [1]; [8]): 10 mg/kg
- ED50, writhing test, acute s.c., 10 min. p.i. (phenylquinone [1]; [10]): 0.05 mg/kg
- ED50, writhing test, acute s.c., 30 min. p.i. (phenylquinone [1]; [9]): 0.4 mg/kg
- potency in writhing test compared with cyclazocine (phenylquinone [1]): at least equipotent with cyclazocine
- potency in writhing test compared with morphine (phenylquinone [1]): more potent than morphine
- potency in writhing test compared with pentazocine (phenylquinone [1]): appreciably more potent than pentazocine
- morphine-antagonistic activity, tail-flick test (in words), mice (morphine [4]): marked activity
- ED50, Morphine Antagonism-Tail-Flick Test, Mice (morphine [4]; sc): 5 mg/kg
- apomorphine-antagonistic activity compared with cyclazocine and pentazocine (apomorphine; mice): markedly stronger activity than cyclazocine and pentazocine
- apomorphine-antagonistic activity compared with haloperidol (apomorphine; mice): only slightly weaker effectiveness than haloperidol
- ED50, Apomorphine Antagonism (apomorphine; sc): 0.3 mg/kg
- ED50, writhing test, subchronic s.c., 30 min. p.i. (phenylquinone [5]): 0.4 mg/kg
- muscle-relaxant and anti-convulsant effect in maximum electroshock test (in words) (electroshock): strong muscle-relaxant and anti-convulsant effect
- ED50, Maximal Electroshock Test (electroshock): 4 mg/kg

Compound: CCC12CCN(CC(C)O)C(Cc3ccc(O)cc31)C2C (single isomer, unassigned; (-)) [Compound C, (-)-5-ethyl-2'-hydroxy-2-(2-hydroxypropyl)-9-methyl-6,7-benzomorphan]
- precipitated withdrawal effect (in words) (morphine [2]; morphine-dependent mice): considerable activity
- ED50, Precipitated Withdrawal Jumping Test (morphine [2]; [11]): 7 mg/kg
- morphine-antagonistic activity, tail-flick test (in words), rats (morphine [3]; rat, in vivo): marked activity
- ED50, Morphine Antagonism-Tail-Flick Test, Rats (morphine [3]; rat, in vivo, sc): 2 mg/kg
- morphine-antagonistic activity, tail-flick test (in words), mice (morphine [4]): marked activity
- ED50, Morphine Antagonism-Tail-Flick Test, Mice (morphine [4]; sc): 1 mg/kg

Compound: CC(O)CN1CCC2(C)c3cc(O)ccc3CC1C2C (single isomer, unassigned; (-)) [Compound D, (-)-2'-hydroxy-2-(2-hydroxypropyl)-5,9-dimethyl-6,7-benzomorphan]
- precipitated withdrawal effect (in words) (morphine [2]; morphine-dependent mice): considerable activity
- ED50, Precipitated Withdrawal Jumping Test (morphine [2]; [11]): 9 mg/kg
- morphine-antagonistic activity, tail-flick test (in words), rats (morphine [3]; rat, in vivo): marked activity
- ED50, Morphine Antagonism-Tail-Flick Test, Rats (morphine [3]; rat, in vivo, sc): 2 mg/kg
- morphine-antagonistic activity, tail-flick test (in words), mice (morphine [4]): marked activity
- ED50, Morphine Antagonism-Tail-Flick Test, Mice (morphine [4]; sc): 1 mg/kg

Compound: CNC1=Nc2ccc(Cl)cc2C(c2ccccc2)=[N+]([O-])C1 [Chlordiazepoxide, reference compound]
- ED50 (electroshock): 12 mg/kg

Compound: C[C@H]1[C@H]2Cc3ccc(O)cc3[C@]1(C)CCN2CC1CC1 [Cyclazocine, reference compound]
- properties of cyclazocine from the literature [6]: narcotic partial antagonist of the benzomorphan series with analgesic; also recorded: antidepressant properties
- precipitated withdrawal effect (in words) (morphine [2]; morphine-dependent mice): inactivity
- sedative and muscle-relaxant effect (explaining inactivity in jumping test) (morphine [2]; morphine-dependent mice): simultaneous sedative and muscle-relaxant effect
- ED50, Precipitated Withdrawal Jumping Test (inactive, footnote 2) (morphine [2]; morphine-dependent mice, tested at 0.55 - 3.13 mg/kg): Inactive
- ED50 (morphine [3]; Rattus norvegicus, sc, read-out: ED50, Morphine Antagonism-Tail-Flick Test, Rats): 0.2 mg/kg
- ED50 (phenylquinone [1]; Mus musculus, po, 10 min, p.o., 10 min p.i., ED50 rounded, read-out: ED50, writhing test, acute p.o., 10 min. p.i.): 6 mg/kg
- ED50 (phenylquinone [1]; Mus musculus, po, 0.5 h, p.o., 30 min p.i., ED50 rounded, read-out: ED50, writhing test, acute p.o., 30 min. p.i.): 8 mg/kg
- ED50 (phenylquinone [1]; Mus musculus, sc, 10 min, s.c., 10 min p.i., ED50 rounded, read-out: ED50, writhing test, acute s.c., 10 min. p.i.): 0.06 mg/kg
- ED50 (phenylquinone [1]; Mus musculus, sc, 0.5 h, s.c., 30 min p.i., * = significant difference between acute and subchronic ED50 (p < 0.001), read-out: ED50, writhing test, acute s.c., 30 min. p.i.): 0.09 mg/kg
- ED50, Morphine Antagonism-Tail-Flick Test, Mice (morphine [4]; sc): 0.1 mg/kg
- ED50 (apomorphine; Mus musculus, sc): 6 mg/kg
- ED50 (electroshock): 2 mg/kg
- muscle-relaxant and anti-convulsant effect in maximum electroshock test (in words) (electroshock): strong muscle-relaxant and anti-convulsant effect

Compound: O=C(CCCN1CCC(O)(c2ccc(Cl)cc2)CC1)c1ccc(F)cc1 [Haloperidol, reference compound]
- ED50 (apomorphine; Mus musculus, sc): 0.1 mg/kg

Compound: CN1CC[C@]23c4c5ccc(O)c4O[C@H]2[C@@H](O)C=C[C@H]3[C@H]1C5 [Morphine, reference compound]
- ED50, writhing test, acute p.o., 10 min. p.i. (phenylquinone [1]; [7]): 7 mg/kg
- ED50, writhing test, acute p.o., 30 min. p.i. (phenylquinone [1]; [8]): 3 mg/kg
- ED50, writhing test, acute s.c., 10 min. p.i. (phenylquinone [1]; [10]): 0.3 mg/kg
- ED50, writhing test, acute s.c., 30 min. p.i. (phenylquinone [1]; [9]): 0.5 mg/kg
- ED50, writhing test, subchronic s.c., 30 min. p.i. (phenylquinone [5]): 3 mg/kg

Compound: C=CCN1CC[C@]23c4c5ccc(O)c4O[C@H]2C(=O)CC[C@@]3(O)[C@H]1C5 [Naloxone, reference compound]
- ED50 (morphine [2]; Mus musculus, sc, morphine-dependent mice, criterion mean jumping frequency >1/minute): 0.2 mg/kg
- jumping frequency, solvent controls challenged with naloxone (morphine [2]; mice, solvent controls, naloxone 0.39 mg/kg, N = 80): 0.13 ± 0.06 min⁻¹

Compound: CN1CCc2cccc3c2[C@H]1Cc1ccc(O)c(O)c1-3 [apomorphine hydrochloride, reference compound]
- ED95 (apomorphine; Mus musculus, sc, mice, ED95, s.c., read-out: apomorphine dose corresponding to an ED95 for the production of stereotyped behavior in the head region): 1.56 mg/kg

Compound: CN1CC[C@]23c4c5ccc(O)c4O[C@H]2[C@@H](O)C=C[C@H]3[C@H]1C5.O=S(=O)(O)O [morphine sulfate, reference compound]
- morphine dose corresponding to the ED99, reaction times exceeding 95% value of controls (morphine [3]; rat, in vivo): 6.25 mg/kg
- morphine dose corresponding to the ED80, reaction times exceeding 95% value of controls (morphine [4]; sc): 12.5 mg/kg

Compound: O=C1C=CC(=O)C(c2ccccc2)=C1 [phenylquinone, reference compound]
- ED95 (phenylquinone [1]; Mus musculus, ip, 10 min, ED95, intraperitoneal, maximum action within 10 minutes p.i., read-out: phenylquinone dosage corresponding to the ED95 for the evocation of writhing): 2 mg/kg
